Patent US6541506B1, “Antifungal enediynes” (Phytera Incorporated, priority 1999, dated 2003)
Values after ≈ are worked out from the molar mass of the structure shown. Values joined by “and” are separate entries in the source; they are usually repeats but may differ in a detail not shown here. Identical values can stand only once.

Tests used:
C. albicans DSY1024 = assay: Candida growth inhibition (XTT), C. albicans DSY1024; type: cell-based
Procedure: (§1) There are numerous assays that can be used to measure the inhibition of growth of a fungus such as Candida. In one example, cultures of Candida, e.g., C. albicans strains DSY1024 and SC5314, C. krusei ATCC 6258, and C. glabrata ATCC 90030, are subcultured from cryopreserved stocks onto Sabouraud's dextrose agar plates. Blastoconidia are suspended into RPMI-MOPS medium and inoculated (500 cfu/well) into 96-well plates containing test compounds in a final volume of 100 μL/well. After 22 hours at 35° C., 25 μL of XTT (2,3-bis(2-methoxy-4-nitro-5-sulfophenyl)-5-(phenylamino)carbonyl]-2H-tetrazolium hydroxide), (100 μg/mL) with PMS (phenazine methyl sulfate, 5 μM) are added to each well, followed by 2 hours of shaking. Growth is assessed spectrophotometrically by measuring the appearance of soluble formazan stain at 450 nm using an Emax microplate reader. Validity of the assay is confirmed by determination of the C. albicans minimum inhibitory concentration (MIC) for known antifungal agents such as amphotericin B, 5-flucytosine, fluconazole, nikkomycin Z, and polyoxin D.
LP416E8 (AC-05081-T4-3) was an organic extract of a manipulated plant cell culture from A. corsicum.

C. albicans SC5314 = assay: Candida growth inhibition (XTT), C. albicans SC5314; type: cell-based
Procedure: as §1

C. albicans 90028 = assay: Candida growth inhibition, C. albicans 90028; type: cell-based
Procedure: as §1

C. albicans A26 = assay: Candida growth inhibition, C. albicans A26; type: cell-based
Procedure: as §1

C. albicans #64 = assay: Candida growth inhibition, C. albicans #64; type: cell-based
Procedure: as §1
(§2) Using the cell growth assay described herein, Compound 1 was tested for its ability to inhibit growth of C. albicans, C. kefyr, C. tropicalis, C. krusei, and C. glabrata.

C. albicans UTR-14 = assay: Candida growth inhibition, C. albicans UTR-14; type: cell-based; conditions: C. albicans UTR-14, fluconazole-resistant strain
Procedure: as §1, §2

C. albicans 93-1226 = assay: Candida growth inhibition, C. albicans 93-1226; type: cell-based; conditions: C. albicans 93-1226, fluconazole-resistant strain
Procedure: as §1, §2

C. keyfer 46764 = assay: Candida growth inhibition, C. keyfer 46764; type: cell-based, C. kefyr
Procedure: as §1, §2

C. tropicalis 623-20 = assay: Candida growth inhibition, C. tropicalis 623-20; type: cell-based
Procedure: as §1, §2

C. tropicalis 750 = assay: Candida growth inhibition, C. tropicalis 750; type: cell-based
Procedure: as §1, §2

C. tropicalis 97-1037 = assay: Candida growth inhibition, C. tropicalis 97-1037; type: cell-based
Procedure: as §1, §2

C. krusei 6258 = assay: Candida growth inhibition, C. krusei 6258; type: cell-based
Procedure: as §1, §2

C. krusei 97-1037 = assay: Candida growth inhibition, C. krusei 97-1037; type: cell-based
Procedure: as §1, §2

C. glabrata 90030 = assay: Candida growth inhibition, C. glabrata 90030; type: cell-based
Procedure: as §1, §2

C. glabrata 95-2421 = assay: Candida growth inhibition, C. glabrata 95-2421; type: cell-based
Procedure: as §1, §2

C. glabrata 95-2425 = assay: Candida growth inhibition, C. glabrata 95-2425; type: cell-based
Procedure: as §1, §2

S. cerevisiae AD1-9 = assay: Anti-cell growth activity, S. cerevisiae AD1-9; type: cell-based
Procedure: (§3) The anti-cell growth activity of Compound 1 on other fungal strains, as well as bacterial strains and cultured mammalian cells, was also tested (Table 3). […] Bacterial cell growth and mammalian cell growth was inhibited at substantially higher concentrations of Compound 1.

S. cerevisiae 2229-5C = assay: Anti-cell growth activity, S. cerevisiae 2229-5C; type: cell-based
Procedure: as §3

A. fumigatus 8001 = assay: Anti-cell growth activity, A. fumigatus 8001; type: cell-based, Aspergillus fumigatus
Procedure: as §3

S. aureus 29213 = assay: Anti-cell growth activity, S. aureus 29213; type: cell-based
Procedure: as §3

E. faecalis 29212 = assay: Anti-cell growth activity, E. faecalis 29212; type: cell-based
Procedure: as §3

E. coli 700 = assay: Anti-cell growth activity, E. coli 700; type: cell-based
Procedure: as §3

HFF cells = assay: Anti-cell growth activity, cultured mammalian HFF cells; type: cell-based
Procedure: as §3

T. rubrum = assay: Dermatophyte growth inhibition (microdilution, NCCLS M27A), T. rubrum; type: cell-based, Trichophyton rubrum; conditions: T. rubrum, four days at 35° C., visual inspection
Procedure: (§4) The compounds of the invention are also effective against dermatophytes. Testing was performed using a microdilution method based on the NCCLS M27A antifungal protocol. Compounds to be tested were prepared in DMSO and diluted to the appropriate concentration in RPMI 1640 medium (the dermatophyte growth medium). An inoculum of each test organism was prepared from oatmeal agar plates to contain 0.5-2.5×10^3 conidia/mL. One hundred microliters of the inoculum was added to each well of a 96-well microtiter plate containing 4 μL of a test compound and 96 μL of RPMI 1640. Terbinafine (sold under the brand name Lamisil®) was used as a positive control.

T. mentagrophytes = assay: Dermatophyte growth inhibition (microdilution, NCCLS M27A), T. mentagrophytes; type: cell-based; conditions: T. mentagrophytes, four days at 35° C., visual inspection
Procedure: as §4

T. tonsurans = assay: Dermatophyte growth inhibition (microdilution, NCCLS M27A), T. tonsurans; type: cell-based; conditions: T. tonsurans, four days at 35° C., visual inspection
Procedure: as §4

M. canis = assay: Dermatophyte growth inhibition (microdilution, NCCLS M27A), M. canis; type: cell-based, Microsporum canis; conditions: M. canis, four days at 35° C., visual inspection
Procedure: as §4

[1] = system: C. albicans, C. kefyr, C. tropicalis, C. krusei, and C. glabrata; assay: Candida growth inhibition, all tested strains (summary); type: cell-based, Candida spp.; conditions: range over all tested strains incl. fluconazole-resistant 93-1226 and UTR-14
Procedure: as §1, §2

other fungal strains = assay: Anti-cell growth activity on other fungal strains (summary); type: cell-based; conditions: range over other fungal strains of Table 3
Procedure: as §3

Candida = assay: Anti-Candida activity by backbone length; type: cell-based; conditions: X=7
Excerpt: The variable X denotes the length of a saturated carbon backbone. The antifungal activity of the claimed compounds changes in part based on the length of this backbone. […] Preferably, X is an integer between 5 and 7, inclusive, although longer carbon chains (X=8-10) may preserve or increase antifungal activity.

O=C(O)CCCCCC=CC#CC#Cc1ccco1 [Compound 2]
IC50 (C. albicans DSY1024; C. albicans DSY1024 (Table 4)): 1.817 µg/mL (≈ 7.09 µM) | MIC (C. albicans DSY1024; C. albicans DSY1024 (Table 4)): 3.125 µg/mL (≈ 12.2 µM) | inhibition of growth of strain SC5314 (C. albicans SC5314): able to inhibit growth | IC50 (C. albicans SC5314; C. albicans SC5314 (Table 4)): 2.592 µg/mL (≈ 10.1 µM) | MIC (C. albicans SC5314; C. albicans SC5314 (Table 4)): 3.125 µg/mL (≈ 12.2 µM)

O=C(O)CCCCCCC/C=C/C#CC#Cc1ccco1 [Compound 1]
MIC (C. albicans DSY1024; C. albicans DSY1024): 0.0025 µg/mL (≈ 0.00879 µM) | MIC (C. albicans SC5314; C. albicans SC5314): 0.000625 µg/mL and 0.00125 µg/mL | IC50 (C. albicans 90028): 0.00122 µg/mL (≈ 0.00429 µM) | IC50 (C. albicans A26): 0.0011 µg/mL (≈ 0.00387 µM) | IC50 (C. albicans #64): 0.00145 µg/mL (≈ 0.0051 µM) | MIC (C. albicans #64): 0.005 µg/mL (≈ 0.0176 µM) | IC50 (C. albicans UTR-14): 0.00364 µg/mL (≈ 0.0128 µM) | MIC (C. albicans UTR-14): 0.0025 µg/mL (≈ 0.00879 µM) | IC50 (C. albicans 93-1226): 0.0021 µg/mL (≈ 0.00739 µM) | MIC (C. albicans 93-1226): 0.0025 µg/mL (≈ 0.00879 µM) | MIC (C. keyfer 46764): 0.01 µg/mL (≈ 0.0352 µM) | IC50 (C. tropicalis 623-20): 0.00296 µg/mL (≈ 0.0104 µM) | MIC (C. tropicalis 623-20): 0.005 µg/mL (≈ 0.0176 µM) | IC50 (C. tropicalis 750): 0.00467 µg/mL (≈ 0.0164 µM) | MIC (C. tropicalis 750): 0.005 µg/mL (≈ 0.0176 µM) | IC50 (C. tropicalis 97-1037): 0.00368 µg/mL (≈ 0.0129 µM) | MIC (C. tropicalis 97-1037): 0.005 µg/mL (≈ 0.0176 µM) | IC50 (C. krusei 6258): 0.0419 µg/mL (≈ 0.147 µM) | MIC (C. krusei 6258): 0.05 µg/mL (≈ 0.176 µM) | IC50 (C. krusei 97-1037): 0.0261 µg/mL (≈ 0.0918 µM) | MIC (C. krusei 97-1037): 0.05 µg/mL (≈ 0.176 µM) | IC50 (C. glabrata 90030): 0.0125 to 0.025 µg/mL | MIC (C. glabrata 90030): 0.005 µg/mL (≈ 0.0176 µM) | IC50 (C. glabrata 95-2421): 0.00825 µg/mL (≈ 0.029 µM) | MIC (C. glabrata 95-2421): 0.0125 µg/mL (≈ 0.044 µM) | IC50 (C. glabrata 95-2425): 0.00313 to 0.00625 µg/mL | MIC (C. glabrata 95-2425): 0.0125 µg/mL (≈ 0.044 µM) | IC50 (S. cerevisiae AD1-9): 0.18 µg/mL (≈ 0.633 µM) | MIC (S. cerevisiae AD1-9): 0.25 µg/mL (≈ 0.879 µM) | IC50 (S. cerevisiae 2229-5C): 0.5 to 1.0 µg/mL | MIC (S. cerevisiae 2229-5C): 1 µg/mL (≈ 3.52 µM) | IC50 (A. fumigatus 8001): 50 to 100 µg/mL | MIC (A. fumigatus 8001): 200 µg/mL (≈ 703 µM) | IC50 (S. aureus 29213): 31.6 µg/mL (≈ 111 µM) | MIC (S. aureus 29213): 50 µg/mL (≈ 176 µM) | IC50 (E. faecalis 29212): 7.5 µg/mL (≈ 26.4 µM) | MIC (E. faecalis 29212): 12.5 µg/mL (≈ 44 µM) | MIC (E. coli 700): >200 µg/mL | IC50 (HFF cells): 12 µg/mL (≈ 42.2 µM) | MIC (T. rubrum): 0.001 µg/mL (≈ 0.00352 µM) | MIC (T. mentagrophytes): 0.001 µg/mL (≈ 0.00352 µM) | MIC (T. tonsurans): 0.001 µg/mL (≈ 0.00352 µM) | MIC (M. canis): 0.001 µg/mL (≈ 0.00352 µM) | IC50 values, all tested Candida strains [1]: 0.00035 to 0.042 µg/mL | IC50 values, fungal growth, lower end of range (other fungal strains): ≥ 0.18 µg/mL | anti-Candida activity (ranking by backbone length X) (Candida): greatest anti-Candida activity

O=C(O)CCCCCCC=CC#CC#Cc1ccco1 [Compound 3]
IC50 (C. albicans DSY1024; C. albicans DSY1024 (Table 4)): 0.503 µg/mL (≈ 1.86 µM) | MIC (C. albicans DSY1024; C. albicans DSY1024 (Table 4)): 1 µg/mL (≈ 3.7 µM) | MIC (T. rubrum): 8.0 µg/mL (≈ 29.6 µM) | MIC (T. mentagrophytes): 2.0 µg/mL (≈ 7.4 µM) | MIC (T. tonsurans): 2.0 µg/mL (≈ 7.4 µM) | MIC (M. canis): 2.0 µg/mL (≈ 7.4 µM)

C/C=C\C#CC#C/C=C/C(O)CCCCCCCC(=O)O (centres unmarked) [Compound 6]
IC50 (C. albicans DSY1024; C. albicans DSY1024 (Table 4)): 11.3 µg/mL (≈ 39.2 µM) | MIC (C. albicans DSY1024; C. albicans DSY1024 (Table 4)): 12.5 µg/mL (≈ 43.3 µM) | inhibition of growth of strain SC5314 (C. albicans SC5314): able to inhibit growth | IC50 (C. albicans SC5314; C. albicans SC5314 (Table 4)): 8.5 µg/mL (≈ 29.5 µM) | MIC (C. albicans SC5314; C. albicans SC5314 (Table 4)): 12.5 µg/mL (≈ 43.3 µM)
